Experimental data as given in ChEMBL document CHEMBL4414672, “Synthesis of certain benzothieno[3,2-d]pyrimidine derivatives as a selective SIRT2 inhibitors” (Eur J Med Chem, 2020).

Key:
Type in all cases: functional
[1] = test system: NCI-H522; assay: Growth inhibition of human NCI-H522 cells at 10^-5 M incubated for 48 hrs by sulforhodamine B assay; conditions: NCI-H522, 48 h, read-out: GI
[2] = test system: NCI/ADR-RES; assay: Growth inhibition of human NCI/ADR-RES cells at 10^-5 M incubated for 48 hrs by sulforhodamine B assay; conditions: read-out: GI
[3] = test system: T47D; assay: Growth inhibition of human T47D cells at 10^-5 M incubated for 48 hrs by sulforhodamine B assay; conditions: read-out: GI
[4] = test system: SNB-75; assay: Growth inhibition of human SNB75 cells at 10^-5 M incubated for 48 hrs by sulforhodamine B assay; conditions: SNB-75, 48 h, read-out: GI
[5] = test system: Hs-578T; assay: Growth inhibition of human Hs 578T cells at 10^-5 M incubated for 48 hrs by sulforhodamine B assay; conditions: read-out: GI
[6] = test system: 786-0; assay: Growth inhibition of human 786-0 cells at 10^-5 M incubated for 48 hrs by sulforhodamine B assay; conditions: 786-0, 48 h, read-out: GI
[7] = test system: MOLT-4; assay: Growth inhibition of human MOLT4 cells at 10^-5 M incubated for 48 hrs by sulforhodamine B assay; conditions: MOLT-4, 48 h, read-out: GI
[8] = test system: MCF7; assay: Growth inhibition of human MCF7 cells at 10^-5 M incubated for 48 hrs by sulforhodamine B assay; conditions: MCF7, 48 h, read-out: GI
[9] = test system: SK-MEL-5; assay: Growth inhibition of human SK-MEL-5 cells at 10^-5 M incubated for 48 hrs by sulforhodamine B assay; conditions: SK-MEL-5, 48 h, read-out: GI
[10] = test system: MDA-MB-231; assay: Growth inhibition of human MDA-MB-231 cells at 10^-5 M incubated for 48 hrs by sulforhodamine B assay; conditions: MDA-MB-231, 48 h, read-out: GI
[11] = test system: NCI-H322M; assay: Growth inhibition of human NCI-H322M cells at 10^-5 M incubated for 48 hrs by sulforhodamine B assay; conditions: read-out: GI
[12] = test system: HCT-116; assay: Growth inhibition of human HCT116 cells at 10^-5 M incubated for 48 hrs by sulforhodamine B assay; conditions: HCT-116, 48 h, read-out: GI
[13] = test system: OVCAR-8; assay: Growth inhibition of human OVCAR8 cells at 10^-5 M incubated for 48 hrs by sulforhodamine B assay; conditions: OVCAR-8, 48 h, read-out: GI
[14] = test system: UACC-62; assay: Growth inhibition of human UACC62 cells at 10^-5 M incubated for 48 hrs by sulforhodamine B assay; conditions: UACC-62, 48 h, read-out: GI
[15] = test system: SN12C; assay: Growth inhibition of human SN12C cells at 10^-5 M incubated for 48 hrs by sulforhodamine B assay; conditions: read-out: GI
[16] = test system: NCI-H23; assay: Growth inhibition of human NCI-H23 cells at 10^-5 M incubated for 48 hrs by sulforhodamine B assay; conditions: NCI-H23, 48 h, read-out: GI
[17] = test system: SK-MEL-28; assay: Growth inhibition of human SK-MEL-28 cells at 10^-5 M incubated for 48 hrs by sulforhodamine B assay; conditions: SK-MEL-28, 48 h, read-out: GI
[18] = test system: A498; assay: Growth inhibition of human A498 cells at 10^-5 M incubated for 48 hrs by sulforhodamine B assay; conditions: A498, 48 h, read-out: GI
[19] = test system: SR; assay: Growth inhibition of human SR cells at 10^-5 M incubated for 48 hrs by sulforhodamine B assay; conditions: read-out: GI
[20] = test system: DU-145; assay: Growth inhibition of human DU145 cells at 10^-5 M incubated for 48 hrs by sulforhodamine B assay; conditions: DU-145, 48 h, read-out: GI
[21] = test system: SF-268; assay: Growth inhibition of human SF268 cells at 10^-5 M incubated for 48 hrs by sulforhodamine B assay; conditions: SF-268, 48 h, read-out: GI
[22] = test system: Malme-3M; assay: Growth inhibition of human MALME-3M cells at 10^-5 M incubated for 48 hrs by sulforhodamine B assay; conditions: read-out: GI
[23] = test system: HCT-15; assay: Growth inhibition of human HCT15 cells at 10^-5 M incubated for 48 hrs by sulforhodamine B assay; conditions: HCT-15, 48 h, read-out: GI
[24] = test system: HL-60(TB); assay: Growth inhibition of human HL-60(TB) cells at 10^-5 M incubated for 48 hrs by sulforhodamine B assay; conditions: HL-60, 48 h, read-out: GI
[25] = test system: LOX IMVI; assay: Growth inhibition of human LOXIMVI cells at 10^-5 M incubated for 48 hrs by sulforhodamine B assay; conditions: read-out: GI
[26] = test system: OVCAR-3; assay: Growth inhibition of human OVCAR3 cells at 10^-5 M incubated for 48 hrs by sulforhodamine B assay; conditions: OVCAR-3, 48 h, read-out: GI
[27] = test system: TK-10; assay: Growth inhibition of human TK10 cells at 10^-5 M incubated for 48 hrs by sulforhodamine B assay; conditions: TK-10, 48 h, read-out: GI
[28] = test system: ACHN; assay: Growth inhibition of human ACHN cells at 10^-5 M incubated for 48 hrs by sulforhodamine B assay; conditions: read-out: GI
[29] = test system: SK-OV-3; assay: Growth inhibition of human SKOV3 cells at 10^-5 M incubated for 48 hrs by sulforhodamine B assay; conditions: SK-OV-3, 48 h, read-out: GI
[30] = test system: M14; assay: Growth inhibition of human M14 cells at 10^-5 M incubated for 48 hrs by sulforhodamine B assay; conditions: M14, 48 h, read-out: GI
[31] = test system: RXF 393; assay: Growth inhibition of human RXF393 cells at 10^-5 M incubated for 48 hrs by sulforhodamine B assay; conditions: RXF 393, 48 h, read-out: GI
[32] = test system: CCRF-CEM; assay: Growth inhibition of human CCRF-CEM cells at 10^-5 M incubated for 48 hrs by sulforhodamine B assay; conditions: read-out: GI
[33] = test system: SNB-19; assay: Growth inhibition of human SNB19 cells at 10^-5 M incubated for 48 hrs by sulforhodamine B assay; conditions: SNB-19, 48 h, read-out: GI
[34] = test system: NCI-H460; assay: Growth inhibition of human NCI-H460 cells at 10^-5 M incubated for 48 hrs by sulforhodamine B assay; conditions: NCI-H460, 48 h, read-out: GI
[35] = test system: SW-620; assay: Growth inhibition of human SW620 cells at 10^-5 M incubated for 48 hrs by sulforhodamine B assay; conditions: SW-620, 48 h, read-out: GI
[36] = test system: SF-295; assay: Growth inhibition of human SF295 cells at 10^-5 M incubated for 48 hrs by sulforhodamine B assay; conditions: SF-295, 48 h, read-out: GI
[37] = test system: OVCAR-5; assay: Growth inhibition of human OVCAR5 cells at 10^-5 M incubated for 48 hrs by sulforhodamine B assay; conditions: OVCAR-5, 48 h, read-out: GI
[38] = test system: IGROV-1; assay: Growth inhibition of human IGROV1 cells at 10^-5 M incubated for 48 hrs by sulforhodamine B assay; conditions: IGROV-1, 48 h, read-out: GI
[39] = test system: A549; assay: Growth inhibition of human A549/ATCC cells at 10^-5 M incubated for 48 hrs by sulforhodamine B assay; conditions: A549, 48 h, read-out: GI

SMILES | inhibition of growth at 10 µM [1] [%] | inhibition of growth at 10 µM [2] [%] | inhibition of growth at 10 µM [3] [%] | inhibition of growth at 10 µM [4] [%] | inhibition of growth at 10 µM [5] [%] | inhibition of growth at 10 µM [6] [%] | inhibition of growth at 10 µM [7] [%] | inhibition of growth at 10 µM [8] [%] | inhibition of growth at 10 µM [9] [%] | inhibition of growth at 10 µM [10] [%] | inhibition of growth at 10 µM [11] [%] | inhibition of growth at 10 µM [12] [%] | inhibition of growth at 10 µM [13] [%] | inhibition of growth at 10 µM [14] [%] | inhibition of growth at 10 µM [15] [%] | inhibition of growth at 10 µM [16] [%] | inhibition of growth at 10 µM [17] [%] | inhibition of growth at 10 µM [18] [%] | inhibition of growth at 10 µM [19] [%] | inhibition of growth at 10 µM [20] [%] | other results
O=[N+]([O-])c1cccc(C2c3sc4ccc(Cl)cc4c3N=C3NN=C(c4cccc(F)c4)N32)c1 (stereo not drawn) | 7.14 | -2.63 | 18.1 | 6.3 | 1.64 | -1.01 | 13 | 24.4 | 4.01 | 13.4 | 2.83 | 2.49 | -1.43 | 4.06 | 3.42 | 10.1 | -15.4 | 0.64 | 1.04 | 11.3 | inhibition of growth at 10 µM [21]: 2.25%; inhibition of growth at 10 µM [22]: -3.66%; inhibition of growth at 10 µM [23]: 0.97%; inhibition of growth at 10 µM [24]: 2.97%; inhibition of growth at 10 µM [25]: 0.5%; inhibition of growth at 10 µM [26]: -1.54%; inhibition of growth at 10 µM [27]: -12.9%; inhibition of growth at 10 µM [28]: 11.4%; inhibition of growth at 10 µM [29]: 6.58%; inhibition of growth at 10 µM [30]: -2.52%; inhibition of growth at 10 µM [31]: -16.7%; inhibition of growth at 10 µM [32]: -19.6%; inhibition of growth at 10 µM [33]: -0.64%; inhibition of growth at 10 µM [34]: 13.4%; inhibition of growth at 10 µM [35]: -3.74%; inhibition of growth at 10 µM [36]: 2.31%; inhibition of growth at 10 µM [37]: -2.63%; inhibition of growth at 10 µM [38]: 21.3%; inhibition of growth at 10 µM [39]: 2.2%
NNC1=Nc2c(sc3ccc(Cl)cc23)C(c2cccc([N+](=O)[O-])c2)N1 (stereo not drawn) | 7.13 | -3.64 | 12.8 | 10.7 | -2.75 | -3.52 | 13 | 18.1 | 3.86 | 16.3 | 4.45 | -0.35 | -1.52 | 4.25 | 1.02 | 9.49 | -26.6 | -27.2 | 1.98 | -9.18 | inhibition of growth at 10 µM [21]: 1.93%; inhibition of growth at 10 µM [22]: -5%; inhibition of growth at 10 µM [23]: -5.02%; inhibition of growth at 10 µM [24]: 2.98%; inhibition of growth at 10 µM [25]: 2.22%; inhibition of growth at 10 µM [26]: -1.38%; inhibition of growth at 10 µM [27]: -18.2%; inhibition of growth at 10 µM [28]: 6.37%; inhibition of growth at 10 µM [29]: 5.88%; inhibition of growth at 10 µM [30]: -4.43%; inhibition of growth at 10 µM [31]: -16.8%; inhibition of growth at 10 µM [32]: -19.8%; inhibition of growth at 10 µM [33]: -1.03%; inhibition of growth at 10 µM [34]: 1.16%; inhibition of growth at 10 µM [35]: -6.43%; inhibition of growth at 10 µM [36]: -3.08%; inhibition of growth at 10 µM [37]: -5.19%; inhibition of growth at 10 µM [38]: 23.8%; inhibition of growth at 10 µM [39]: -4.45%
